What was measured:
great cardiac vein = experiment: Blood vessel contraction measurement; parameters: species or system porcine
Method: (§1) Dissected porcine hearts (260-390 g) were transported from local slaughterhouse to the laboratory in ice-cold Krebs-Henseleit solution (119 mM NaCl, 23.8 mM NaHCO3, 3 mM KCl, 1.14 mM NaH2PO4, 1.63 mM CaCl2, and 16.5 mM glucose). Left anterior descending coronary artery and great cardiac vein were isolated. Part of each blood vessel was used immediately after Isolation for contraction assays while part of it was kept frozen in liquid nitrogen for the membrane preparation. In some experiments blood vessels in which endothelium was mechanically removed were used. The same procedure was used also for the preparation of human umbilical blood vessels; umbilical cords were obtained from Obstetric Clinic of Ljubljana Clinical Center, Slovenia.
(§2) The measurements were performed as already described (20). Rings (5 mm wide) of blood vessels were cut and mounted into 10 ml tissue chamber filled with Krebs-Henseleit solution (37° C.; pH=7.4) which was oxygenated with the mixture of ^95% O2 and 5% CO2. Initial tension of 50 mN was applied and after equilibration 30 mM KCl was added to obtain stable Isometric contraction. The presence of endothelium was verified with substance P. After washing out of KCl and substance P and after the equilibration of the system was restored, test peptide was added into the tissue chamber and blood vessel contraction was recorded.

Gi = target: T1, Gi (Bos taurus, UniProt P63097); experiment: GTPase activity of Sf9 membranes overexpressing G-proteins; assay type: biochemical, bovine; conditions: 100 μM
T1 construct: made in house; host or cells: Sf9 insect cells (baculovirus); membranes used
T1 sequence (P63097 2-354 limits assumed): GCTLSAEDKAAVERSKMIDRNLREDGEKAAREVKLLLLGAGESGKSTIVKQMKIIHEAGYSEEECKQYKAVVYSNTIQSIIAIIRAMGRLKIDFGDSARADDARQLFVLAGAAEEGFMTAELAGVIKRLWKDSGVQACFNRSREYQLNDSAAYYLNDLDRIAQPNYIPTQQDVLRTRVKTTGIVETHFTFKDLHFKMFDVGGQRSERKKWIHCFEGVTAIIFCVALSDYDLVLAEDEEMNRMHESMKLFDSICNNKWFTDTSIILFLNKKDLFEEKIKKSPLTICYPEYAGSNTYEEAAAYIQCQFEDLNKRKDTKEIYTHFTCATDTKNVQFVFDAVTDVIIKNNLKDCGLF
Description: (§3) Baculovirus transfer vectors harboring the genes for Gsα, Giα1 and β1γ2 were kindly provided by Dr. Tatsuya Haga (University of Tokyo, Tokyo, Japan). The cDNA for bovine Gsα (21) in pVL1392, bovine Giα1 (22) In pVL1392 and bovine β1γ2 (23) in pVL1393 were cotransfected with linearized baculovirus DNA (Pharmingen, San Diego, Calif., USA), and the resulted virus stocks were subjected to one round of plaque purification before generation of high-titer virus stocks. In the expression procedure, Sf9 cells at density of 2 million cells/ml in suspension culture were Infected with a ratio 2:1 of a versus βγ. Cells were harvested 48 h post-infection, washed in PBS and stored at −70° C. until membrane preparation.
(§4) Frozen pieces of blood vessels were mechanically pulverized. […] Until used, they were kept frozen in the concentration of 1-2 mg protein/ml as determined by the method of Lowry (Lowry, O. H., Rosenbrough, N.Y., Farr, A. L. & Randall, R. J. J. Biol. Chem. 193, 265-275 (1951)). […]
(§5) Incubation medium was standard TE-buffer, pH 7.5. […] Blank values were determined by the replacement of membrane solution with assay buffer. […] The radioactivity of the yielding radioactive phosphate was determined in Packard 3255 liquid scintillation counter.

Gs = target: T2, Gs (Bos taurus, UniProt P04896); experiment: as above; assay type: biochemical, bovine; conditions: 100 μM
T2 construct: made in house; host or cells: Sf9 insect cells (baculovirus); membranes used
T2 sequence (P04896 whole entry): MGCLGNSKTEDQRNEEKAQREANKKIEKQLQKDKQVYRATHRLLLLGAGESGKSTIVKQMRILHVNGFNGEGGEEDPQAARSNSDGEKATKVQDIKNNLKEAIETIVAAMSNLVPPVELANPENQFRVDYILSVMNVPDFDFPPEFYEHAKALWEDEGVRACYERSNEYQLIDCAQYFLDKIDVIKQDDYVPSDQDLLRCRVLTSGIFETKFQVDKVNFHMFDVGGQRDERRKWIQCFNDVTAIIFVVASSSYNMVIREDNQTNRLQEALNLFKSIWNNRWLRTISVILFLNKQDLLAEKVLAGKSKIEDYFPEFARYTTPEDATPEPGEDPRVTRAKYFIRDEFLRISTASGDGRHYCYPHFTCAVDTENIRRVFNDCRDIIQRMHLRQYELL
Description: as §3, §4, §5

human umbilical artery = experiment: Blood vessel contraction measurement
Method: as §1, §2

[1] = system: porcine left anterior descending coronary artery; experiment: Blood vessel contraction measurement
Method: as §1, §2

G11 = target: T3, G11 (Homo sapiens, UniProt P29992); experiment: GTPase activity of Sf9 membranes overexpressing G-proteins; assay type: biochemical; conditions: 100 μM
T3 construct: made in house; host or cells: Sf9 insect cells (baculovirus); membranes used
T3 sequence (P29992 1-359): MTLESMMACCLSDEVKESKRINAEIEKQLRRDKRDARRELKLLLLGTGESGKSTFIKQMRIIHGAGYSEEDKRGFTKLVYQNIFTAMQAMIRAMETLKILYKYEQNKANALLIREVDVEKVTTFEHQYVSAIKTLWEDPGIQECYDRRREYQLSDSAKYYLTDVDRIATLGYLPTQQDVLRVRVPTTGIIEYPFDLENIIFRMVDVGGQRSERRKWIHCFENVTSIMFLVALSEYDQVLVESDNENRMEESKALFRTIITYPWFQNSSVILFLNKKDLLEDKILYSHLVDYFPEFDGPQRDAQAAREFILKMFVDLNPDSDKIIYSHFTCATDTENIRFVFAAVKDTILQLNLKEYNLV

Go = target: T4, Go (Homo sapiens, UniProt P09471); experiment: as above; assay type: biochemical; conditions: 100 μM
T4 construct: made in house; host or cells: Sf9 insect cells (baculovirus); membranes used
T4 sequence (P09471 whole entry): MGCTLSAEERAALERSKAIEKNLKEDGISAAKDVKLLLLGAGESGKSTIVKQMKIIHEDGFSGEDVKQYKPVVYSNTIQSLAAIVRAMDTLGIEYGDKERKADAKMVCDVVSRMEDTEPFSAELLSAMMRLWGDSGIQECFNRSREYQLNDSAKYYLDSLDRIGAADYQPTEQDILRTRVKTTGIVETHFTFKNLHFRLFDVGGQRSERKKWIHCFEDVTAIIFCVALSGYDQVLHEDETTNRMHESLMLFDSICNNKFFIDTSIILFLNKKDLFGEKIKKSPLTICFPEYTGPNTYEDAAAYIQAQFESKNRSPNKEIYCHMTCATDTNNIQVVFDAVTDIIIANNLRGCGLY

[2] = system: G-proteins from blood vessel membranes; experiment: Rate of GTPγS binding to blood vessel membranes; assay type: biochemical; conditions: membranes from porcine left anterior descending coronary artery
Method: Frozen pieces of blood vessels were mechanically pulverized. Subsequently membranes were obtained according to the protocol of McKenzie (McKenzie, F. R. Signal Transduction (Milliqan, E., Ed.), Oxford University Press, Oxford, N.Y., Tokyo. (1992)) with minor modifications. Until used, they were kept frozen in the concentration of 1-2 mg protein/ml as determined by the method of Lowry (Lowry, O. H., Rosenbrough, N.Y., Farr, A. L. & Randall, R. J. J. Biol. Chem. 193, 265-275 (1951)). The same procedure (with the exception of pulverization of tissue) was used also for the preparation of membranes from Sf9 cells which overexpressed the G-proteins of different types; protein concentrations of these membrane preparations were between 0.2 and 0.4 mg/ml.
The binding to G-proteins from blood vessel membranes was followed as described by McKenzie (McKenzie, F. R. Signal Transduction (Milligan, E., Ed.), Oxford University Press, Oxford, N.Y., Tokyo. (1992)). Briefly, the membranes (final protein concentration in the assay mixture was 0.05 mg/ml) were incubated for 3 min in the absence and presence of peptides in different concentrations with 0.5 nM [^35S]GTPγS at 13° C. […] The remaining radioactivity contained in the filters was determined in the LKB 1214 Rackbeta liquid scintillation counter. Blank values were determined by replacing the membrane preparations with buffer.

[3] = system: N2A mouse neuroblastoma cells; experiment: Cellular internalisation assay of fluorescein-labelled APP and PS peptides; assay type: cell-based
[4] = system: N2A mouse neuroblastoma cells; experiment: as above; assay type: cell-based; conditions: 10 μM, 37°
Method: Mouse neuroblastoma cells, N2A, were cultivated in Dulbecco's minimal essential medium with Glutamax-I, supplemented with 10% (v/v) fetal bovine serum, penicillin (100 U/ml) and streptomycin (100 μg/ml).
The cells used for Internalisation were seeded out on round glass coverslips in 24well plates. One day post seeding, the cells were semi confluent, and the medium was changed to serum-free medium. The fluorescein-labelled peptides were added, with a final concentration of 10 μM. After 60 min of incubation at 37°, the cells were washed 3 times with 1 ml of Hepes-Krebbs-Ringer-(HKR) buffer and fixed with 3% paraformaldehyde solution in phosphate-buffered saline solution (PBS) for 10 minutes. The cells were then washed 3 times with 1 ml of HKR-buffer, and the coverslips were mounted and sealed for microscopy studies.
The cell type used for the internalisation assays with the fluorescein'tagged peptides was N2A mouse neuroblastoma cells. This cell-line is commonly used in association with Alzheimer's disease studies, and serves as a good model cell-line for these internalisation assays where peptides derived from proteins involved in Alzheimer's disease were examined. These Internalisation assays were performed at 37° C., therefore the internalisation by endocytosis cannot be excluded.

Porcine coronary artery = experiment: Effect of M630 on porcine coronary artery
Method: CGRP receptor loop iC4, sequence 391-405 ([…]) was synthesised and tested at blood vessels as described for the ATLAR loop previously.
Porcine coronary artery was contracted by using KCl. After relaxation of the artery by washing, 50 μM M630 was applied. Contraction started after approximately 10 min and reached maximum in 15 to 20 min after application. […] The effect was reproducible and always very clearly observed. The lag-period of 10 min could be the time needed for the penetration of M630 into the cells.

N2a cells = experiment: Cellular internalisation of M630 conjugated to fluorescein; assay type: cell-based; conditions: 5 μM, 1 h, 37° C.
Method: FIG. 42. Cellular internalisation of M630 conjugated to fluorescein in N2a cells, visualised by confocal microscope. The cells were incubated for 1 h at 37° C. with a final peptide concentration of 5 μM.

Bowes and Caco-2 = experiment: PenMMP14 uptake in cells expressing MMP14; assay type: cell-based, human
Description: FIG. 24. Another example of an Inactivated selCPP. PenMMP14 uptake in Bowes (A) and B)) and Caco-2 (C) and D)). The left column is uptake of fluorescein labelled peptide (A) and C)) and the […] with coumarine label (B) and D)).

YTA-2ps = system: T5, YTA-2ps
T5 sequence: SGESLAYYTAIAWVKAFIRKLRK

**Q.** How did the “blood vessel contraction compared with porcine artery” value (great cardiac vein) turn out when FLGKKFKKYFLQLLK [Peptide M511] was run?
**A.** Virtually Identical effect

**Q.** What about the GTPase activity (Gi) of the same substance?
**A.** small but significant activation

**Q.** And the GTPase activity (Gs)?
**A.** seems not to be affected

**Q.** And the “blood vessel contraction compared with porcine artery” value (human umbilical artery)?
**A.** Virtually Identical effect

**Q.** What about the “termination of contraction by washing” value [1] of the same substance?
**A.** could not be terminated by washing

**Q.** And the blood vessel contraction ([1]; 16 μM)?
**A.** intense and long-lasting contraction

**Q.** And the “strength of contraction as % of maximal effect of potassium ion” value ([1]; 16 μM, comparable to 30 mM K+)?
**A.** approximately 50%

**Q.** What about the “contraction force higher than that induced by 30 mM KCl” value ([1]; 100 mM M511 (so in the source)) of the same substance?
**A.** about 40%

**Q.** And the GTPase activity (G11)?
**A.** moderate inhibition

**Q.** What about the GTPase activity (Go) of the same substance?
**A.** small but significant activation

**Q.** What about the “rate of binding of GTPγS” value [2] of the same substance?
**A.** dose-dependently increased

**Q.** KGKFQLYLKLKFKFL [Scrambled M511] was tested. Which blood vessel contraction ([1]; 16 μM) did it give?
**A.** did not cause any contraction

**Q.** What about the “rate of binding of GTPγS” value [2] of the same substance?
**A.** not active

**Q.** With KKKQYTSIHHGVVEVD [APP (725-740)] as the substance, how does the “internalisation at 4° C.” value [3] read?
**A.** not internalised

**Q.** What about the cellular localisation [4] of the same substance?
**A.** mostly to the cytosol

**Q.** And the cellular internalisation ([4]; 60 min)?
**A.** increased fluorescence compared to the background

**Q.** VQAILRRNWNQYKIQ [Peptide M630] was tested. Which “effect on the contracted arteries” value (Porcine coronary artery) did it give?
**A.** no effect

**Q.** And the “reversal of contraction by washing” value (Porcine coronary artery; 50 μM)?
**A.** Washing did not reverse the contraction

**Q.** What about the “time to start of contraction” value (Porcine coronary artery; 50 μM) of the same substance?
**A.** approximately 10 min

**Q.** And the cell membrane penetration (N2a cells)?
**A.** penetrates cell membranes by a non-endocytotic mechanism

**Q.** With “coum-DEEQERSEN-IRQIKIWFQNRRMKWK*K-amide [SelCPP2]” as the substance, how does the cellular uptake (Bowes and Caco-2) read?
**A.** taken up in cells expressing MMP14

**Q.** For matrix metallo proteinase-2 (MMP-2), which “cleavage of the peptide by the protease, checked by mass spectrometry” value (YTA-2ps) is on record?
**A.** The correct cleavage of YTA-2 by MMP2 has also be confirmed by mass spectrometry (data not shown)
